# Assay results taken from ChEMBL document CHEMBL5360625, “Design, Synthesis, and Antitumor Activity Evaluation of 2-Arylmethoxy-4-(2,2'-dihalogen-substituted biphenyl-3-ylmethoxy) Benzylamine Derivatives as Potent PD-1/PD-L1 Inhibitors” (J Med Chem, 2023).
# The source made the active and inactive calls. The calls are words filed in the database; no cut-off is given here.
# Legend:
# [1] = test system: MC-38; assay: Antitumor activity against mouse MC38 cells implanted in PD-1/PD-L1 humanized C57/BL6 mouse assessed as increase in perforin levels at 50 mg/kg, IG qd administered on day 5 measured after 2 weeks by microscopic analysis; type: functional, organism-based
# [2] = Hepatotoxicity in PD-1/PD-L1 humanized C57/BL6 mouse implanted with mouse MC38 cells assessed as effect on AST level in serum at 50 mg/kg, IG qd administered on day 5 measured after 2 weeks; type: toxicity, organism-based, MC-38; settings: in vivo, po, 336 h
# [3] = Tmax in Sprague-Dawley rat at 10 mg/kg, ip measured upto 48 hrs by LC-MS/MS analysis; type: ADME, organism-based; settings: in vivo
# [4] = test system: PBMC; assay: Cytotoxicity against human PBMC cells assessed as reduction in cell viability at 1 to 4 uM measured after 48 hrs by CCK-8 assay; type: toxicity, cell-based; settings: dose 1-4 µM
# [5] = test system: MC-38; assay: Antitumor activity against mouse MC38 cells implanted in PD-1/PD-L1 humanized C57/BL6 mouse assessed as tumor growth inhibition at 50 mg/kg, IG qd administered on day 5 measured after 2 weeks; type: functional; settings: MC-38, po, 336 h, read-out: TGI
# [6] = Toxicity in PD-1/PD-L1 humanized C57/BL6 mouse implanted with mouse MC38 cells assessed as morphological change in kidney at 50 mg/kg, IG qd administered on day 5 measured after 2 weeks by hematoxylin-eosin staining based inverted fluorescent microscopic analysis; type: organism-based, MC-38; settings: in vivo, po, 336 h
# [7] = test system: MC-38; assay: Antitumor activity against mouse MC38 cells implanted in PD-1/PD-L1 humanized C57/BL6 mouse assessed as increase in CD3 positive CD8 positive T cells proportion in tumor at 50 mg/kg, IG qd administered on day 5 measured after 2 weeks by flow cytometry analysis (reference value: 51.8%); type: functional
# [8] = test system: MC-38; assay: Immunomodulatory activity in mouse MC38 cells implanted in PD-1/PD-L1 humanized C57/BL6 mouse assessed as decrease in PD-L1 mRNA expression level in tumor at 50 mg/kg, IG qd administered on day 5 measured after 2 weeks by RT-PCR analysis; type: functional, organism-based
# [9] = Hepatotoxicity in PD-1/PD-L1 humanized C57/BL6 mouse implanted with mouse MC38 cells assessed as effect on total protein level in serum at 50 mg/kg, IG qd administered on day 5 measured after 2 weeks; type: toxicity, organism-based, MC-38; settings: in vivo, po, 336 h
# [10] = test system: MC-38; assay: Immunomodulatory activity in mouse MC38 cells implanted in PD-1/PD-L1 humanized C57/BL6 mouse assessed as increase in CXCL10 mRNA expression level in tumor at 50 mg/kg, IG qd administered on day 5 measured after 2 weeks by RT-PCR analysis; type: functional, organism-based
# [11] = Toxicity in PD-1/PD-L1 humanized C57/BL6 mouse implanted with mouse MC38 cells assessed as morphological change in liver at 50 mg/kg, IG qd administered on day 5 measured after 2 weeks by hematoxylin-eosin staining based inverted fluorescent microscopic analysis; type: organism-based, MC-38; settings: in vivo, po, 336 h
# [12] = Tmax in Sprague-Dawley rat at 40 mg/kg, IG measured upto 48 hrs by LC-MS/MS analysis; type: ADME, organism-based; settings: in vivo, po
# [13] = molecular target: Programmed cell death protein 1/Programmed cell death 1 ligand 1 (Homo sapiens, UniProt Q9NZQ7); assay: Inhibition of PD-1/PD-L1 interaction (unknown origin) incubated for 1 hr by HTRF assay; type: protein-complex assay
# [14] = AUC (0 to t) in Sprague-Dawley rat at 40 mg/kg, IG measured upto 48 hrs by LC-MS/MS analysis; type: ADME, organism-based; parameters: dose 40 mg/kg, time < 48 hrs, route ig; settings: in vivo, po
# [15] = Hepatotoxicity in PD-1/PD-L1 humanized C57/BL6 mouse implanted with mouse MC38 cells assessed as effect on ALB level in serum at 50 mg/kg, IG qd administered on day 5 measured after 2 weeks; type: toxicity, organism-based, MC-38; settings: in vivo, po, 336 h
# [16] = test system: MC-38; assay: Antitumor activity against mouse MC38 cells implanted in PD-1/PD-L1 humanized C57/BL6 mouse assessed as reduction in tumor growth at 50 mg/kg, IG qd administered on day 5 measured after 2 weeks; type: functional, organism-based
# [17] = Cmax in Sprague-Dawley rat at 40 mg/kg, IG measured upto 48 hrs by LC-MS/MS analysis; type: ADME, organism-based; parameters: dose 40 mg/kg, time < 48 hrs, route ig; settings: in vivo, po
# [18] = Apparent volume of distribution in Sprague-Dawley rat at 8 mg/kg, iv measured upto 48 hrs by LC-MS/MS analysis; type: ADME, organism-based; settings: Sprague-Dawley, in vivo, read-out: Vz
# [19] = AUC (0 to t) in Sprague-Dawley rat at 8 mg/kg, iv measured upto 48 hrs by LC-MS/MS analysis; type: ADME, organism-based; parameters: dose 8 mg/kg, time < 48 hrs, route iv; settings: in vivo
# [20] = Clearance in Sprague-Dawley rat at 10 mg/kg, ip measured upto 48 hrs by LC-MS/MS analysis; type: ADME, organism-based; settings: in vivo
# [21] = Clearance in Sprague-Dawley rat at 40 mg/kg, IG measured upto 48 hrs by LC-MS/MS analysis; type: ADME, organism-based; settings: Sprague-Dawley, in vivo, po
# [22] = Toxicity in PD-1/PD-L1 humanized C57/BL6 mouse implanted with mouse MC38 cells assessed as mortality at 50 mg/kg, IG qd administered on day 5 measured after 2 weeks; type: organism-based, MC-38; settings: in vivo, po, 336 h
# [23] = Toxicity in PD-1/PD-L1 humanized C57/BL6 mouse implanted with mouse MC38 cells assessed as morphological change in heart at 50 mg/kg, IG qd administered on day 5 measured after 2 weeks by hematoxylin-eosin staining based inverted fluorescent microscopic analysis; type: organism-based, MC-38; settings: in vivo, po, 336 h
# [24] = Toxicity in PD-1/PD-L1 humanized C57/BL6 mouse implanted with mouse MC38 cells assessed as morphological change in lung at 50 mg/kg, IG qd administered on day 5 measured after 2 weeks by hematoxylin-eosin staining based inverted fluorescent microscopic analysis; type: organism-based, MC-38; settings: in vivo, po, 336 h
# [25] = AUC (0 to t) in Sprague-Dawley rat at 10 mg/kg, ip measured upto 48 hrs by LC-MS/MS analysis; type: ADME, organism-based; parameters: time < 48 hrs, dose 10 mg/kg, route ip; settings: in vivo
# [26] = Toxicity in PD-1/PD-L1 humanized C57/BL6 mouse implanted with mouse MC38 cells assessed as change in body weight at 50 mg/kg, IG qd administered on day 5 measured after 2 weeks; type: organism-based, MC-38; settings: in vivo, po, 336 h
# [27] = molecular target: Programmed cell death protein 1/Programmed cell death 1 ligand 1 (Homo sapiens) (UniProt Q15116+Q9NZQ7); assay: Inhibition of PD-1/PD-L1 interaction in human PBMC cells assessed as increase in IFN-gamma secretion at 4 uM incubated for 48 hrs in presence of PD-L1 protein by ELISA assay; type: cell-based
# [28] = Half life in Sprague-Dawley rat at 10 mg/kg, ip measured upto 48 hrs by LC-MS/MS analysis; type: ADME, organism-based; settings: in vivo
# [29] = test system: MC-38; assay: Antitumor activity against mouse MC38 cells implanted in PD-1/PD-L1 humanized C57/BL6 mouse assessed as increase in granzyme B level at 50 mg/kg, IG qd administered on day 5 measured after 2 weeks by microscopic analysis; type: functional, organism-based
# [30] = AUC (0 to infinity) in Sprague-Dawley rat at 10 mg/kg, ip measured upto 48 hrs by LC-MS/MS analysis; type: ADME, organism-based; parameters: time < 48 hrs, dose 10 mg/kg, route ip; settings: in vivo
# [31] = molecular target: Programmed cell death 1 ligand 1 (Homo sapiens, UniProt Q9NZQ7); assay: Binding affinity to human PD-L1 expressed in Escherichia coli strain BL21 assessed as dissociation constant by NMR spectroscopic analysis
# Programmed cell death 1 ligand 1, sequence (Q9NZQ7 whole entry): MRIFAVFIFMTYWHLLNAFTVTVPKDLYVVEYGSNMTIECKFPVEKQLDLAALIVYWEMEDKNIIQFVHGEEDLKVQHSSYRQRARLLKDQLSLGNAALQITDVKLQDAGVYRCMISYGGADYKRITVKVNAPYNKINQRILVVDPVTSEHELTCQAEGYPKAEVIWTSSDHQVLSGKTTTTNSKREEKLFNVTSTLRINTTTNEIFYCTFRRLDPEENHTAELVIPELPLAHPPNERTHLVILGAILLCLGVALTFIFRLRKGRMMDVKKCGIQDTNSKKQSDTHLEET
# Programmed cell death protein 1/Programmed cell death 1 ligand 1, sequence (Q15116 whole entry): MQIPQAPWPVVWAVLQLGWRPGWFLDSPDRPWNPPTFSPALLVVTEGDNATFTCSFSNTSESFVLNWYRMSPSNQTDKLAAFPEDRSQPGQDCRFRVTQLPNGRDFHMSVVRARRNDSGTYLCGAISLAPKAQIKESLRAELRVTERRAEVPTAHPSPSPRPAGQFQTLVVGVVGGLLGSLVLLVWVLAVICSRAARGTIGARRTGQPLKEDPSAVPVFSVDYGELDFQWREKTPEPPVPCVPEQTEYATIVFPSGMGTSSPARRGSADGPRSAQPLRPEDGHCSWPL
# Programmed cell death protein 1/Programmed cell death 1 ligand 1, sequence (Q9NZQ7 whole entry): as the sequence (Q9NZQ7 whole entry) above
smiles,measurement,setting,value
N#Cc1cncc(COc2cc(OCc3cccc(-c4ccccc4F)c3Cl)ccc2CNCCO)c1,Activity,[1],Active
same,Activity,[2],Non-Toxic
same,Tmax,[3],0.88 h
same,Activity,[4],Non-Toxic
same,inhibition in vivo at 50 mg/kg,[5],55.2%
same,Activity,[6],Non-Toxic
same,Activity,[7],67.4%
same,Activity,[8],Active
same,Activity,[9],Non-Toxic
same,Activity,[10],Active
same,Activity,[11],Non-Toxic
same,Tmax,[12],1.75 h
same,IC50,[13],24 µM
same,AUC(0-t) at 48 h,[14],63600 ng·h/mL
same,Activity,[15],Non-Toxic
same,Activity,[16],Active
same,Cmax,[17],21500 ng/mL
same,Vd,[18],1.09 L/kg
same,AUC(0-t) at 48 h,[19],11500 ng·h/mL
same,CL/F,[20],20.2 mL/min/kg
same,CL/F,[21],10.3 mL/min/kg
same,Activity,[22],Non-Toxic
same,Activity,[23],Non-Toxic
same,Activity,[24],Non-Toxic
same,AUC(0-t) at 48 h,[25],9730 ng·h/mL
same,Activity,[26],Non-Toxic
same,inhibition,[27],Active
same,half-life,[28],2.43 h
same,Activity,[29],Active
same,AUC(0-inf),[30],10500 ng·h/mL
same,Kd,[31],< 1 µM
